In US7550509B2, “Carisoprodol articles and methods” (Mutual Pharmaceutical Company, Inc., priority 2006, dated 2009):
Read-outs that look alike come from different tables or passages of the source.

Experiments:
[1] = cited from earlier work
[2] = Biostudy of carisoprodol (SOMA®) pharmacokinetics under non-fasted and fasted conditions, randomized single-dose two-way crossover; type: in vivo, human (healthy adults); details: for AUC(0-inf) / AUC(0-t) / Tmax / Cmax: plasma; for AUC(0-inf): read-out: AUC0-INF, geometric mean (ln-transformed); for AUC(0-t): read-out: AUC0-t, geometric mean (ln-transformed); for Tmax: read-out: Tmax, least sq. mean (non-transformed); for Cmax: single dose SOMA®, 22 subjects, read-out: Cmax, geometric mean (ln-transformed)
Experimental: A biostudy was conducted under fasted and non-fasted conditions.
The dosage form is administered with 240 ml of water during the fasting period, and water can be allowed ad libitum after 2 hours.
As used herein, for the purposes of biostudy and the determination of bioequivalence, a non-fasted patient is defined as a patient who fasts for at least 10 hours overnight and then consumes an entire test meal within 30 minutes of first ingestion. The dosage form is administered with 240 mL of water at 30 minutes after first ingestion of the meal. No food is then allowed for at least 4 hours post-dose. Water can be allowed ad libitum after 2 hours. A high fat test meal provides approximately 1000 calories to the patient of which approximately 50% of the caloric content is derived from fat content of the meal. A representative high fat high calorie test meal comprises 2 eggs fried in butter, 2 strips of bacon, 2 slices of toast with butter, 4 ounces of hash brown potatoes, and 8 ounces of whole milk to provide 150 protein calories, 250 carbohydrate calories, and 500 to 600 fat calories.
The study was designed as a randomized, single-dose two-way crossover to compare the pharmacokinetic parameters of SOMA®. Twenty-four healthy adults participated in this comparison study and 22 of the subjects completed the study. Subjects received two separate drug administration treatments in assigned periods, one treatment per period, according to the randomization schedule. Dosing days were separated by a washout period of at least seven days. Blood samples were drawn prior to dosing (pre-dose) and at 0.33, 0.67, 1, 1.5, 2, 2.5, 3, 3.5, 4, 5, 6, 7, 8, 10, 12, 18, and 24 hours post-dose. The samples were then analyzed for carisoprodol and meprobamate.
The following pharmacokinetic parameters may be determined from the plasma concentration data:
The area under the plasma concentration versus time curve [AUCt] may be calculated using the linear trapezoidal rule from the zero time point to the last measured concentration.
The area under the plasma concentration versus time curve from zero to infinity [AUC0-INF] may be calculated by adding Ct/Kelm to AUC where Ct is the last measured concentration and Kelm is the elimination rate constant.
The maximum observed plasma concentration [Cmax] may be obtained by inspection. The Cmax may also be designated as CMAX.
The time to maximum plasma concentration [Tmax] may be obtained by inspection. If the same maximum plasma concentration occurs at more than one time point, the first may be chosen as Tmax.
The terminal elimination rate constant [Kelm] may be obtained from the slope of the line, fitted by linear least squares regression, through the terminal points of the 1n(base e) of the concentration versus time plot for these points.
The half-life [T1/2] may be calculated by the equation T1/2=0.693/Kelm.

[3] = carisoprodol, non-fasted compared to fasted
[4] = carisoprodol, non-fasted vs fasted
[5] = human, oral, carisoprodol in plasma, fasted
[6] = human, oral, carisoprodol in plasma, non-fasted

For `CCCC(C)(COC(N)=O)COC(=O)NC(C)C` (stereo not drawn) [carisoprodol, N-isopropyl-2-methyl-2-propyl-1,3-propanediol dicarbamate], the “solubility in organic solvents (in words)” value ([1]; alcohol, chloroform, and acetone) is listed as “freely soluble”, the solubility in water ([1]; between 25 to 50° C.) is listed as 300 to 1400 µg/mL and the “solubility in water (in words)” value ([1]; water) is listed as “very sparingly soluble”. The “T½, least sq. mean” value ([2]; carisoprodol in plasma, fasted) was 1.95 h, the “kelm (elimination rate constant), least sq. mean” value ([2]; carisoprodol in plasma, fasted) was 0.376 and the “kelm (elimination rate constant), least sq. mean” value ([2]; carisoprodol in plasma, non-fasted) was 0.3713. For the same compound, the “decrease in the geometric mean of Cmax in the presence of food” value [2, 3] was 16%, the “effect of food on AUC (AUC0-t and AUC0-INF) (in words)” value [2, 3] was “substantially unchanged” and the “effect of food on Cmax (in words)” value [2, 3] was “decreases”. The “AUC0-INF, % Ratio of geometric means” value [2, 4] was 96.8%, the “AUC0-t, % Ratio of geometric means” value [2, 4] was 96.1% and the “Cmax, % Ratio of geometric means” value [2, 4] was 83.8%. The “Tmax, % Ratio” value [2, 4] was 137.5%, the “T½, % Ratio” value [2, 4] was 100% and the “kelm, % Ratio” value [2, 4] was 98.7%. It also gave a half-life ([2]; human, oral, carisoprodol in plasma, non-fasted, read-out: T½, least sq. mean (converted)) of 1.95 h, an AUC(0-inf) [2, 5] of 6510 ng·h/mL and an AUC(0-t) [2, 5] of 6380 ng·h/mL. It also gave a Tmax [2, 5] of 1.63 h, a Cmax [2, 5] of 2000 ng/mL and a Cmax ([2]; human, oral, carisoprodol in plasma, non-fasted (high fat meal)) of 1680 ng/mL. It also gave an AUC(0-inf) [2, 6] of 6310 ng·h/mL, an AUC(0-t) [2, 6] of 6140 ng·h/mL and a Tmax [2, 6] of 2.24 h.
